Experimental data as given in the kinase profiling compilation of Christmann-Franck et al. (2016).

What was measured:
Test in all cases: KINOMEscan competition binding
Conditions in all cases: compound 10.0 µM
STK38L (human) = STK38L (human) (UniProt Q9Y2H1)
RPS6KA4 KD2 (human) = RPS6KA4 KD2 (human) (UniProt O75676)
PIK3C2G (human) = PIK3C2G (human) (UniProt O75747)
ULK2 (human) = ULK2 (human) (UniProt Q8IYT8)
AKT3 (human) = AKT3 (human) (UniProt Q9Y243)
PRKD3 (human) = PRKD3 (human) (UniProt O94806)
MYLK (human) = MYLK (human) (UniProt Q15746)
EPHB4 (human) = EPHB4 (human) (UniProt P54760)
RPS6KA6 KD1 (human) = RPS6KA6 KD1 (human) (UniProt Q9UK32)
NIM1 (human) = NIM1 (human) (UniProt Q8IY84)
MAPK1 (human) = MAPK1 (human) (UniProt P28482)
RPS6KA3 KD2 (human) = RPS6KA3 KD2 (human) (UniProt P51812)
HCK (human) = HCK (human) (UniProt P08631)
WNK3 (human) = WNK3 (human) (UniProt Q9BYP7)
DDR1 (human) = DDR1 (human) (UniProt Q08345)
STK38 (human) = STK38 (human) (UniProt Q15208)
FRK (human) = FRK (human) (UniProt P42685)
MYLK2 (human) = MYLK2 (human) (UniProt Q9H1R3)
PIK3CD (human) = PIK3CD (human) (UniProt O00329)
EPHB2 (human) = EPHB2 (human) (UniProt P29323)
SRPK1 (human) = SRPK1 (human) (UniProt Q96SB4)
MYLK4 (human) = MYLK4 (human) (UniProt Q86YV6)
PKMYT1 (human) = PKMYT1 (human) (UniProt Q99640)
EPHA1 (human) = EPHA1 (human) (UniProt P21709)
SGK1 (human) = SGK1 (human) (UniProt O00141)
SIK3 (human) = SIK3 (human) (UniProt Q9Y2K2)
DAPK2 (human) = DAPK2 (human) (UniProt Q9UIK4)
GSG2 (human) = GSG2 (human) (UniProt Q8TF76)
ABL1 (human) = ABL1 (human) (UniProt P00519)
LIMK2 (human) = LIMK2 (human) (UniProt P53671)
EIF2AK1 (human) = EIF2AK1 (human) (UniProt Q9BQI3)
[1] = system: ABL1 (human), P00519 [H396P]
HIPK4 (human) = HIPK4 (human) (UniProt Q8NE63)
MAP3K6 (human) = MAP3K6 (human) (UniProt O95382)
[2] = system: RET (human), P07949 [M918T]
PHKG2 (human) = PHKG2 (human) (UniProt P15735)
PRKG1 (human) = PRKG1 (human) (UniProt Q13976)
WNK1 (human) = WNK1 (human) (UniProt Q9H4A3)
MAPKAPK5 (human) = MAPKAPK5 (human) (UniProt Q8IW41)
[3] = system: EGFR (human), P00533 [T790M]

GSG2 (human), sequence (Q8TF76 whole entry, looked up): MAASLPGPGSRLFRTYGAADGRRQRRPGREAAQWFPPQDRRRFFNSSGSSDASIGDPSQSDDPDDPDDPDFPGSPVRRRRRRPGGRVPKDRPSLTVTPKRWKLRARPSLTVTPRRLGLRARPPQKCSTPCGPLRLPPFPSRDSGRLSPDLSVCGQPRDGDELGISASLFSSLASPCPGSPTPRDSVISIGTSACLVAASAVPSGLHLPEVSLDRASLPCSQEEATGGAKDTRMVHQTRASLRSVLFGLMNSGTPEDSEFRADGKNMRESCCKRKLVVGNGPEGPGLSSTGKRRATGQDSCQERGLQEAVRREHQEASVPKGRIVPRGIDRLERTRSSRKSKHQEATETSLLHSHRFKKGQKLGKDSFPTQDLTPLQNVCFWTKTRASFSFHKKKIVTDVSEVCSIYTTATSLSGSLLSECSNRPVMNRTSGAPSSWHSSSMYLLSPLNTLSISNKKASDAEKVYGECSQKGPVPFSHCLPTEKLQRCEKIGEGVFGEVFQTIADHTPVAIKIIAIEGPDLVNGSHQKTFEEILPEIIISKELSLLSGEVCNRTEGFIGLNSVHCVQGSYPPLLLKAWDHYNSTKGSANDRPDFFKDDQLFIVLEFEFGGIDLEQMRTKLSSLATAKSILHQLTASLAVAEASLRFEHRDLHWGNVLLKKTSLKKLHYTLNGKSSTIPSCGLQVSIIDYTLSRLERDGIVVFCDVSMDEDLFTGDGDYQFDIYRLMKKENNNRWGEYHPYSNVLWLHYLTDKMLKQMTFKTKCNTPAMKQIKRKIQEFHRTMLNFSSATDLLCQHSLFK
ULK2 (human), sequence (Q8IYT8 whole entry, looked up): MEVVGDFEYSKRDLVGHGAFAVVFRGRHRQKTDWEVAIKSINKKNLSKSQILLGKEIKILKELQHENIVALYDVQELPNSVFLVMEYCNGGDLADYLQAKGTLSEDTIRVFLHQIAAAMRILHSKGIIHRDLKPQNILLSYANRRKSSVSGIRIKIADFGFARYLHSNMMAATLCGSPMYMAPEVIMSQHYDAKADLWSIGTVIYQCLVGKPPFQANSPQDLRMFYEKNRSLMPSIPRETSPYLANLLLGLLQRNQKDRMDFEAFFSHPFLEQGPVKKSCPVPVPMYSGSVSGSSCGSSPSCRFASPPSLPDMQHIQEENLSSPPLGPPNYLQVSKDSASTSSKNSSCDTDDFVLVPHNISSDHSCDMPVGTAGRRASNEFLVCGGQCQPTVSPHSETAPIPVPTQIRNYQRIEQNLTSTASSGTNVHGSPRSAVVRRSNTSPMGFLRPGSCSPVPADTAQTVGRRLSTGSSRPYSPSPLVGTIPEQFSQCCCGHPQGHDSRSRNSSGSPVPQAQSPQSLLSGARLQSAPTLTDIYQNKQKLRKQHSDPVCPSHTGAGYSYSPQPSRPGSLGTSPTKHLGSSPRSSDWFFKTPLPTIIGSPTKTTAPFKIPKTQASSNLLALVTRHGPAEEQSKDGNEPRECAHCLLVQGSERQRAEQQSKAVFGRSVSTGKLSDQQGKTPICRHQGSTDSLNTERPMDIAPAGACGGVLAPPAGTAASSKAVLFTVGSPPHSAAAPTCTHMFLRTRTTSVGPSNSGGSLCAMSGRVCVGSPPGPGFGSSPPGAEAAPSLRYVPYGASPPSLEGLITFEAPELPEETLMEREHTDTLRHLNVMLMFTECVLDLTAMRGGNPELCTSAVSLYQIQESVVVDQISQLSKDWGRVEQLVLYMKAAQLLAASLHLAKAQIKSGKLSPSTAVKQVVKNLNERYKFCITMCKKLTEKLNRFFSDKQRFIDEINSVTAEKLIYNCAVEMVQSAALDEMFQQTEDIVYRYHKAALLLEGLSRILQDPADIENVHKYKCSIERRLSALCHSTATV
PIK3C2G (human), sequence (O75747 whole entry, looked up): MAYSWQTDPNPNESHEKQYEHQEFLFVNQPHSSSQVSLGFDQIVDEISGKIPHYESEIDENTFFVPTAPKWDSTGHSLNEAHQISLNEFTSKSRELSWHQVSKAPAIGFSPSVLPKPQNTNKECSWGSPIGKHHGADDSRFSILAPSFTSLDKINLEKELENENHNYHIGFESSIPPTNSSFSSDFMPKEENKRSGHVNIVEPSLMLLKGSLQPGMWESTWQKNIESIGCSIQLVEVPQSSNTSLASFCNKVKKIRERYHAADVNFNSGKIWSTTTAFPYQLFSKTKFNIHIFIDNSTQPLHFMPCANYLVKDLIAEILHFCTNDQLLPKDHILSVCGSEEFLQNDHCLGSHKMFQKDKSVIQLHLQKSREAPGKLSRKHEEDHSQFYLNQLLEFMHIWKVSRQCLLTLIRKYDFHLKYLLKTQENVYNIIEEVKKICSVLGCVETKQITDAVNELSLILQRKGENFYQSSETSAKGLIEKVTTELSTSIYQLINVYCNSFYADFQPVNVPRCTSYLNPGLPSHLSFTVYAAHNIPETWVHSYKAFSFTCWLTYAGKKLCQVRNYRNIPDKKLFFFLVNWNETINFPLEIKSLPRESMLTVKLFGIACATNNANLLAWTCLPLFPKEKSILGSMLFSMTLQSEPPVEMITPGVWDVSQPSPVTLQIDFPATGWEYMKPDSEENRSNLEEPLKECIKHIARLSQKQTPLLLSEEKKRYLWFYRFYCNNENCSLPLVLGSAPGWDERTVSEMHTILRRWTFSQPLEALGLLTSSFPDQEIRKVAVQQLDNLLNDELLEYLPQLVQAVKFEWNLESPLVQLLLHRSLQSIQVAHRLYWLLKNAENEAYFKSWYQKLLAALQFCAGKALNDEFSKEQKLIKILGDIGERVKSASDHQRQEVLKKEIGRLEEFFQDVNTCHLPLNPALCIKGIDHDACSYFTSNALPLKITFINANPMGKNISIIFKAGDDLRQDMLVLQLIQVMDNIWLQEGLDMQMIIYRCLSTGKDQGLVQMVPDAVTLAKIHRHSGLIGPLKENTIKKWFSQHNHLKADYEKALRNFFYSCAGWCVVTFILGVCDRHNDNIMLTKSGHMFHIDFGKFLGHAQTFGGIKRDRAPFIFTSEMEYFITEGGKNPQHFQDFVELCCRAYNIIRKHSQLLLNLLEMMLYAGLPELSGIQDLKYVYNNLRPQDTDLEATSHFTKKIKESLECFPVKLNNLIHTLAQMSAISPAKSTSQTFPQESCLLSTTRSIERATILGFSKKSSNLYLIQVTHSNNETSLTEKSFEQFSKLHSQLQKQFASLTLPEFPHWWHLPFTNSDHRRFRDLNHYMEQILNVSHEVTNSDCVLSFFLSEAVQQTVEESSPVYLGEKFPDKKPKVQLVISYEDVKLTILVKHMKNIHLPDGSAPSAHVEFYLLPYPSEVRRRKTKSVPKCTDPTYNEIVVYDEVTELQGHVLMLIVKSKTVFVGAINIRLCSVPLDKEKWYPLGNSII
SRPK1 (human), sequence (Q96SB4 whole entry, looked up): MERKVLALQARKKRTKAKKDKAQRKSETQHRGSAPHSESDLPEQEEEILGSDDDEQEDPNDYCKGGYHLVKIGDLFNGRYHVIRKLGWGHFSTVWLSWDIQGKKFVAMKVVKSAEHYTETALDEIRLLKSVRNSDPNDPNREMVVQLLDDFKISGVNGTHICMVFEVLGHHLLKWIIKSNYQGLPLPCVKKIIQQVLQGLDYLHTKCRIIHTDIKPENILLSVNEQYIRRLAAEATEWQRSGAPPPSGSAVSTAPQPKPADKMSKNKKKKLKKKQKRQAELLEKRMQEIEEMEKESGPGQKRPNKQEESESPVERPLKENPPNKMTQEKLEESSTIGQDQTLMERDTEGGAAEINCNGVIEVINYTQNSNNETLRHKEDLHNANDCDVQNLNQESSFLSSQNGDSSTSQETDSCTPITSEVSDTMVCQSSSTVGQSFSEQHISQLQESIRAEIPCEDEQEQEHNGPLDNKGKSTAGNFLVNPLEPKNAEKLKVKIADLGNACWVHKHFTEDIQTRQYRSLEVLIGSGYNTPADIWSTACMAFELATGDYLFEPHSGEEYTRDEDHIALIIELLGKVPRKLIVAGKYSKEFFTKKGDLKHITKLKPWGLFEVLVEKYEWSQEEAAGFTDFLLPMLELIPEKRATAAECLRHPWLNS
SGK1 (human), sequence (O00141 whole entry, looked up): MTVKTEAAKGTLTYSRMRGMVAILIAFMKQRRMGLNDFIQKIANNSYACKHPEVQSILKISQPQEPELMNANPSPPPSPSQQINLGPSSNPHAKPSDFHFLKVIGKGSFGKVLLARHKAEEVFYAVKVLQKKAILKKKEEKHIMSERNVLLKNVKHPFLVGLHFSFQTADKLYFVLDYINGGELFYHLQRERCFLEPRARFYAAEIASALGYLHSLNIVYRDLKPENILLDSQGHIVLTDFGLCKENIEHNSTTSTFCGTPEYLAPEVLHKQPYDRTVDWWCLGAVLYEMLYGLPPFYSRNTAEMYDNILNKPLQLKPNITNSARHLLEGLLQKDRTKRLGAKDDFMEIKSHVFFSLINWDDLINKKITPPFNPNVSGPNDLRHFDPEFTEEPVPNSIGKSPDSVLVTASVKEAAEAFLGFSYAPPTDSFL
PRKG1 (human), sequence (Q13976 whole entry, looked up): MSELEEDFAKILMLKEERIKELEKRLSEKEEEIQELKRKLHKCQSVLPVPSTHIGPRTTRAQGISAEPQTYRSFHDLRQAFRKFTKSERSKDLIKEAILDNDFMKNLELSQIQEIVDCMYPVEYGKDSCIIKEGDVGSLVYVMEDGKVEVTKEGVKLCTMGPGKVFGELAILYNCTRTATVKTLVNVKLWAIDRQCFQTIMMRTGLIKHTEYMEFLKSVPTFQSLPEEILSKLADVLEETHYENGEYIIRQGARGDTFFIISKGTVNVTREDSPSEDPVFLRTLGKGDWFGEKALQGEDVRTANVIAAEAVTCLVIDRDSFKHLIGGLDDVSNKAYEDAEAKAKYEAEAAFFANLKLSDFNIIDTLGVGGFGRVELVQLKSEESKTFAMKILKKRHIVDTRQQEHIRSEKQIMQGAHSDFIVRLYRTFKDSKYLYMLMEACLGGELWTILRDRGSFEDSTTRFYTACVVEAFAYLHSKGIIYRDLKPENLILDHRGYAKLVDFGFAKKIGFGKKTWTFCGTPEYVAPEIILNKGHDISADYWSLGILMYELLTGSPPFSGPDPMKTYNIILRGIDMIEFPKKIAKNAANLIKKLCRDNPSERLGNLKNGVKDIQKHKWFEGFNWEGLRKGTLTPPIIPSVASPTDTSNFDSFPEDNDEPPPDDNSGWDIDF

Row | SMILES | kinase still bound, per cent of control (STK38L (human)) [%] | kinase still bound, per cent of control (RPS6KA4 KD2 (human)) [%] | kinase still bound, per cent of control (PIK3C2G (human)) [%] | kinase still bound, per cent of control (ULK2 (human)) [%] | kinase still bound, per cent of control (AKT3 (human)) [%] | kinase still bound, per cent of control (PRKD3 (human)) [%] | kinase still bound, per cent of control (MYLK (human)) [%] | kinase still bound, per cent of control (EPHB4 (human)) [%] | kinase still bound, per cent of control (RPS6KA6 KD1 (human)) [%] | kinase still bound, per cent of control (NIM1 (human)) [%] | kinase still bound, per cent of control (MAPK1 (human)) [%] | kinase still bound, per cent of control (RPS6KA3 KD2 (human)) [%] | kinase still bound, per cent of control (HCK (human)) [%] | kinase still bound, per cent of control (WNK3 (human)) [%] | kinase still bound, per cent of control (DDR1 (human)) [%] | kinase still bound, per cent of control (STK38 (human)) [%] | kinase still bound, per cent of control (FRK (human)) [%] | kinase still bound, per cent of control (MYLK2 (human)) [%] | kinase still bound, per cent of control (PIK3CD (human)) [%] | kinase still bound, per cent of control (EPHB2 (human)) [%] | also measured
1 | N#CCNC(=O)c1ccc(-c2ccnc(Nc3ccc(N4CCOCC4)cc3)n2)cc1 | 71 | 100 | 100 | 60 | 100 | 65 | 100 | 100 | 78 | 100 | 93 | 100 | 100 | 90 | 100 | 59 | 98 | 23 | 45 | 100 | kinase still bound, per cent of control (SRPK1 (human)): 1.6%; kinase still bound, per cent of control (MYLK4 (human)): 0%; kinase still bound, per cent of control (PKMYT1 (human)): 100%; kinase still bound, per cent of control (EPHA1 (human)): 100%; kinase still bound, per cent of control (SGK1 (human)): 2.8%; kinase still bound, per cent of control (SIK3 (human)): 100%; kinase still bound, per cent of control (DAPK2 (human)): 41%; kinase still bound, per cent of control (GSG2 (human)): 67%; kinase still bound, per cent of control (ABL1 (human)): 54%; kinase still bound, per cent of control (LIMK2 (human)): 68%; kinase still bound, per cent of control (EIF2AK1 (human)): 100%; kinase still bound, per cent of control [1]: 65%; kinase still bound, per cent of control (HIPK4 (human)): 12%; kinase still bound, per cent of control (MAP3K6 (human)): 100%; kinase still bound, per cent of control [2]: 78%; kinase still bound, per cent of control (PHKG2 (human)): 23%; kinase still bound, per cent of control (PRKG1 (human)): 100%; kinase still bound, per cent of control (WNK1 (human)): 75%; kinase still bound, per cent of control (MAPKAPK5 (human)): 4.4%
2 | O=C1NC(=O)/C(=C/c2ccc3nccc(-c4ccncc4)c3c2)S1 | 100 | 63 | 3.8 | 65 | 100 | 74 | 19 | 74 | 45 | 71 | 100 | 70 | 75 | 86 | 62 | 61 | 81 | 46 | 4.8 | 86 | kinase still bound, per cent of control (SRPK1 (human)): 100%; kinase still bound, per cent of control (MYLK4 (human)): 2.2%; kinase still bound, per cent of control (PKMYT1 (human)): 78%; kinase still bound, per cent of control (EPHA1 (human)): 85%; kinase still bound, per cent of control (SGK1 (human)): 43%; kinase still bound, per cent of control (SIK3 (human)): 93%; kinase still bound, per cent of control (DAPK2 (human)): 1.7%; kinase still bound, per cent of control (GSG2 (human)): 6.2%; kinase still bound, per cent of control (LIMK2 (human)): 100%; kinase still bound, per cent of control (EIF2AK1 (human)): 82%; kinase still bound, per cent of control (HIPK4 (human)): 3.8%; kinase still bound, per cent of control (MAP3K6 (human)): 96%; kinase still bound, per cent of control [2]: 93%; kinase still bound, per cent of control (PHKG2 (human)): 6%; kinase still bound, per cent of control [3]: 76%; kinase still bound, per cent of control (PRKG1 (human)): 75%; kinase still bound, per cent of control (WNK1 (human)): 57%; kinase still bound, per cent of control (MAPKAPK5 (human)): 0.2%
